Columns and labels:
CDK6 CCND3 (human) = CDK6 CCND3 (human) (UniProt P30281+Q00534); experiment: radiometric filter-binding kinase assay, Kinaseprofiler; details: compound 1.0 µM; ATP 200 µM
FGFR1 (human) = FGFR1 (human) (UniProt P11362); experiment: as above; details: compound 1.0 µM; ATP 200 µM
[1] = test system: TEK (human), Q02763 [Q939H/Q940H]; experiment: as above; details: compound 1.0 µM; ATP 200 µM
BMX (human) = BMX (human) (UniProt P51813); experiment: as above; details: compound 1.0 µM; ATP 45 µM
ALK (human) = ALK (human) (UniProt Q9UM73); experiment: as above; details: compound 1.0 µM; ATP 200 µM
CDK3 CCNE1 (human) = CDK3 CCNE1 (human) (UniProt Q00526+P24864); experiment: as above; details: compound 1.0 µM; ATP 200 µM
[2] = test system: MET (human), P08581 [M1250T]; experiment: Caliper, Mobility shift assay off-chip
DAPK1 (human) = DAPK1 (human) (UniProt P53355); experiment: SelectScreen, TR FRET
PTK6 (human) = PTK6 (human) (UniProt Q13882); experiment: SelectScreen, TR FRET
Sequence of PTK6 (human) (Q13882 whole entry, looked up): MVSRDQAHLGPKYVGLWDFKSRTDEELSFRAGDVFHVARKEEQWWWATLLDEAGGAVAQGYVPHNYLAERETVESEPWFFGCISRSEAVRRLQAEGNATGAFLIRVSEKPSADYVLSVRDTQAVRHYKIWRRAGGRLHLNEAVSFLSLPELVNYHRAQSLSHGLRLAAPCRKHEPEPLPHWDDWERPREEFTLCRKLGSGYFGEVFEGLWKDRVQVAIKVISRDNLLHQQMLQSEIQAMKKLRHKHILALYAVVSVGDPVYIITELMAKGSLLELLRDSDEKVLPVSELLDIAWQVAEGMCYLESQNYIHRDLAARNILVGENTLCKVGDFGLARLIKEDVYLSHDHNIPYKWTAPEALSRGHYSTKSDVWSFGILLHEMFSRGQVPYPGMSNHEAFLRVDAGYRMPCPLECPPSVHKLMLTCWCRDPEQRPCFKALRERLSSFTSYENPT

CAMK4 (human) = CAMK4 (human) (UniProt Q16566); experiment: SelectScreen, TR FRET
Sequence of CAMK4 (human) (Q16566 whole entry, looked up): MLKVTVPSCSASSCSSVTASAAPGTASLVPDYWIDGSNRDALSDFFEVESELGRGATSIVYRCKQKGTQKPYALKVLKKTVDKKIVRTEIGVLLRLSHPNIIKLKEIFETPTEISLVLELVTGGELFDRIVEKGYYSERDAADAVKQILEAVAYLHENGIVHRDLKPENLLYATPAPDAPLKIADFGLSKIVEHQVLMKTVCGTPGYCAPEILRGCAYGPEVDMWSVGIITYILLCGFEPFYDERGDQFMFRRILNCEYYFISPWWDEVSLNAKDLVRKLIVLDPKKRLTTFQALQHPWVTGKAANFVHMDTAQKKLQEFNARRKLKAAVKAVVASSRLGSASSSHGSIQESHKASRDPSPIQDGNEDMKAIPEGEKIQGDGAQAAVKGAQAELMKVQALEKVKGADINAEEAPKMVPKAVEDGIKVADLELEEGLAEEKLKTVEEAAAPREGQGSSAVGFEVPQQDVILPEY

CHEK2 (human) = CHEK2 (human) (UniProt O96017); experiment: SelectScreen, TR FRET
Sequence of CHEK2 (human) (O96017 whole entry, looked up): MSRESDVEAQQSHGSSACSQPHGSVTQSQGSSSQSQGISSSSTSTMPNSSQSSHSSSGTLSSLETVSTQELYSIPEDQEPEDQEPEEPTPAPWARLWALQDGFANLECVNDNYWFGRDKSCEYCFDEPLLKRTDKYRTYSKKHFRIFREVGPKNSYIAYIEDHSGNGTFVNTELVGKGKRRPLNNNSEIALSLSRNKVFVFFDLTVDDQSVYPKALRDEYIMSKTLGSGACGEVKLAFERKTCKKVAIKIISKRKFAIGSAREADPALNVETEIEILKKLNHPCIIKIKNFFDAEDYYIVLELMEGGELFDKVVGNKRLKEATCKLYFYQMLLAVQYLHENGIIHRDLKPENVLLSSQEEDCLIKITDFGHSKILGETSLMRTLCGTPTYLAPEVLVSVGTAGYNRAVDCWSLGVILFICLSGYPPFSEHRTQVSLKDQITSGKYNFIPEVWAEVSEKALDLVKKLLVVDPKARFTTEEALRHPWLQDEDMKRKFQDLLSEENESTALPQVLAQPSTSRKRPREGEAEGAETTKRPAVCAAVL

PIM1 (human) = PIM1 (human) (UniProt P11309); experiment: SelectScreen, TR FRET
ZAP70 (human) = ZAP70 (human) (UniProt P43403); experiment: SelectScreen, TR FRET
RPS6KA3 KD1 KD2 (human) = RPS6KA3 KD1 KD2 (human) (UniProt P51812); experiment: SelectScreen, TR FRET
MAP2K6 (human) = MAP2K6 (human) (UniProt P52564); experiment: SelectScreen, TR FRET
Sequence of MAP2K6 (human) (P52564 whole entry, looked up): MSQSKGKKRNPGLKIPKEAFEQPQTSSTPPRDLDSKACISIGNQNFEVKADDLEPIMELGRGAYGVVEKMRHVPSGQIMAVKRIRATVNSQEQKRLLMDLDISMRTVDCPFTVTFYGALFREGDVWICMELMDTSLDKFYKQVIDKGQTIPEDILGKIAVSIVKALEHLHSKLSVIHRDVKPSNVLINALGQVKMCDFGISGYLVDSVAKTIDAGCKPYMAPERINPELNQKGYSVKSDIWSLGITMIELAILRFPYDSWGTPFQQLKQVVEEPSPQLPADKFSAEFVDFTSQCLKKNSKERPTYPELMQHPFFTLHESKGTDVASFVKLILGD

TEK (human) = TEK (human) (UniProt Q02763); experiment: SelectScreen, TR FRET
EPHB2 (human) = EPHB2 (human) (UniProt P29323); experiment: SelectScreen, TR FRET
CDK2 CCNA2 (human) = CDK2 CCNA2 (human) (UniProt P24941+P20248); experiment: SelectScreen, TR FRET
Sequence of CDK2 CCNA2 (human) (P20248 whole entry, looked up, other chains not shown): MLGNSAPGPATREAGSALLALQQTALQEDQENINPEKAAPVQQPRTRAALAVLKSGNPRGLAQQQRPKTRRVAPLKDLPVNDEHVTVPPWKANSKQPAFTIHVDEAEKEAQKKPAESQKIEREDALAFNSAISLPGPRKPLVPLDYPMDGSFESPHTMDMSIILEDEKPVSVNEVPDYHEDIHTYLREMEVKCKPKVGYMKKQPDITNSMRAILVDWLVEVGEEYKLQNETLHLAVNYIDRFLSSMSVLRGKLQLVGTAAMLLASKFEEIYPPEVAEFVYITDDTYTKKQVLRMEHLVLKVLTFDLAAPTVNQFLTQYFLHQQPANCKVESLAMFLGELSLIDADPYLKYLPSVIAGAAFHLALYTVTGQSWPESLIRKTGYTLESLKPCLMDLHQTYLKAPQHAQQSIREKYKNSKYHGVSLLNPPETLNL

CSNK2A1 (human) = CSNK2A1 (human) (UniProt P68400); experiment: SelectScreen, TR FRET
Sequence of CSNK2A1 (human) (P68400 whole entry, looked up): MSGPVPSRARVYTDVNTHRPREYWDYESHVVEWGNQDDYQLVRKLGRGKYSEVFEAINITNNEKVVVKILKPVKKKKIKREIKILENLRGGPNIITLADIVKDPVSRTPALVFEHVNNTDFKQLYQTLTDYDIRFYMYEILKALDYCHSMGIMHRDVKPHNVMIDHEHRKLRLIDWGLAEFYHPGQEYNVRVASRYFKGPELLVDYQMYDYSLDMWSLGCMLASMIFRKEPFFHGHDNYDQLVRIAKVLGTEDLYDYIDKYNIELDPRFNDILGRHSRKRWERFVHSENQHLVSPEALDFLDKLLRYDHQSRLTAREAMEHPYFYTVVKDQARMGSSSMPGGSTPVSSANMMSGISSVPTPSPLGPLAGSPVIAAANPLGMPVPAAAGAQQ

MAPKAPK5 (human) = MAPKAPK5 (human) (UniProt Q8IW41); experiment: SelectScreen, TR FRET
Sequence of MAPKAPK5 (human) (Q8IW41 whole entry, looked up): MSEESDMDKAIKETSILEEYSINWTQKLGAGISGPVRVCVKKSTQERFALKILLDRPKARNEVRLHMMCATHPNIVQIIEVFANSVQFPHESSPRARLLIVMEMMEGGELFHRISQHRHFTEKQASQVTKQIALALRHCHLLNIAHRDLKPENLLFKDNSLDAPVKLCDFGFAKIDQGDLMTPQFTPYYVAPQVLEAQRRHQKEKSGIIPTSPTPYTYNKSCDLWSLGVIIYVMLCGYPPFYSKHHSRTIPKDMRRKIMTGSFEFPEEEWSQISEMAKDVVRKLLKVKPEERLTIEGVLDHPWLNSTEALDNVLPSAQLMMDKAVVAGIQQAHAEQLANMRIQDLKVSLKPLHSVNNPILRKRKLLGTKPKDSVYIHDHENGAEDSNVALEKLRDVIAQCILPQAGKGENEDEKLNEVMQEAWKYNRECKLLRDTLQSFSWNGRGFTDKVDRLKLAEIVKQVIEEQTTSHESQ

PAK1 (human) = PAK1 (human) (UniProt Q13153); experiment: SelectScreen, TR FRET
AKT3 (human) = AKT3 (human) (UniProt Q9Y243); experiment: SelectScreen, TR FRET
AURKB (human) = AURKB (human) (UniProt Q96GD4); experiment: SelectScreen, TR FRET
Sequence of AURKB (human) (Q96GD4 whole entry, looked up): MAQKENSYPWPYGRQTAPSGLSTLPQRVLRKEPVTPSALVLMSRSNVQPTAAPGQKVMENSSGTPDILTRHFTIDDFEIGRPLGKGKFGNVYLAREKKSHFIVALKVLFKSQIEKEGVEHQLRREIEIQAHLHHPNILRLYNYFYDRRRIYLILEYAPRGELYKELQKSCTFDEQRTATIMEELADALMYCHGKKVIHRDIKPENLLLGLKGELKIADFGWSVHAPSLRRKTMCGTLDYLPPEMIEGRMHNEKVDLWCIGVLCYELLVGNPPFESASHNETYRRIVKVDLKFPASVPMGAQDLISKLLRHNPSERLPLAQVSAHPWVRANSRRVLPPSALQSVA

IRAK1 (human) = IRAK1 (human) (UniProt P51617); experiment: SelectScreen, TR FRET
PKN1 (human) = PKN1 (human) (UniProt Q16512); experiment: SelectScreen, TR FRET
GRK6 (human) = GRK6 (human) (UniProt P43250); experiment: SelectScreen, TR FRET
JAK2 JH1 JH2 (human) = JAK2 JH1 JH2 (human) (UniProt O60674); experiment: SelectScreen, TR FRET
Sequence of JAK2 JH1 JH2 (human) (O60674 whole entry, looked up): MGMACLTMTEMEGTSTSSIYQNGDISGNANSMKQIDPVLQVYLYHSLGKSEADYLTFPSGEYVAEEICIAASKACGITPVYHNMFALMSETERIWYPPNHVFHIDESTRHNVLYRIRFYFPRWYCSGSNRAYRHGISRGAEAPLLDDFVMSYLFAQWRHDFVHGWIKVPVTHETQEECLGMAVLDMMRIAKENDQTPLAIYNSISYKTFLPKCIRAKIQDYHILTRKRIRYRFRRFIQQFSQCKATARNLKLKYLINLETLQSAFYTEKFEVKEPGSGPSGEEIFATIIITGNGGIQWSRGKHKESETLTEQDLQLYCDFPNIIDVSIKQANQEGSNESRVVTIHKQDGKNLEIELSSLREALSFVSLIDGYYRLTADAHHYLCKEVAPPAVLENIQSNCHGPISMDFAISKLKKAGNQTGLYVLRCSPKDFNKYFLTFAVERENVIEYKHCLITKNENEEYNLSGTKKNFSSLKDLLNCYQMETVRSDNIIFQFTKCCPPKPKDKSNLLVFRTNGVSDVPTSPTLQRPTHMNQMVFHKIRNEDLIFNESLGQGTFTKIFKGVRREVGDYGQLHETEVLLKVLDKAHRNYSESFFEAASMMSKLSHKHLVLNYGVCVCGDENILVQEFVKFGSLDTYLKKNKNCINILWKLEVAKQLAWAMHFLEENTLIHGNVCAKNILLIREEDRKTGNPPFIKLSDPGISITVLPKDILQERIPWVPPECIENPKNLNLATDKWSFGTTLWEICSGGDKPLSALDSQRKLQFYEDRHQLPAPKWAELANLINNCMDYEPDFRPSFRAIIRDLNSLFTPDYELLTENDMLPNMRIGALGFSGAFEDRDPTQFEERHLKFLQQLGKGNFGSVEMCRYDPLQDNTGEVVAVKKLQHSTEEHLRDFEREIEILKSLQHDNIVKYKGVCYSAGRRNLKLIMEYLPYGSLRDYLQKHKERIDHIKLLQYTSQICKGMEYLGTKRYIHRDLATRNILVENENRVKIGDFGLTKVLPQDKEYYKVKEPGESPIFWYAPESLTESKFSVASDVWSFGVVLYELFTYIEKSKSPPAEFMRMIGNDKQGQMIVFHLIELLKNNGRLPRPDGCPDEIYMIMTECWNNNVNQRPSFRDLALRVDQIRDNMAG

AKT2 (human) = AKT2 (human) (UniProt P31751); experiment: SelectScreen, TR FRET
MST4 (human) = MST4 (human) (UniProt Q9P289); experiment: SelectScreen, TR FRET
Sequence of MST4 (human) (Q9P289 whole entry, looked up): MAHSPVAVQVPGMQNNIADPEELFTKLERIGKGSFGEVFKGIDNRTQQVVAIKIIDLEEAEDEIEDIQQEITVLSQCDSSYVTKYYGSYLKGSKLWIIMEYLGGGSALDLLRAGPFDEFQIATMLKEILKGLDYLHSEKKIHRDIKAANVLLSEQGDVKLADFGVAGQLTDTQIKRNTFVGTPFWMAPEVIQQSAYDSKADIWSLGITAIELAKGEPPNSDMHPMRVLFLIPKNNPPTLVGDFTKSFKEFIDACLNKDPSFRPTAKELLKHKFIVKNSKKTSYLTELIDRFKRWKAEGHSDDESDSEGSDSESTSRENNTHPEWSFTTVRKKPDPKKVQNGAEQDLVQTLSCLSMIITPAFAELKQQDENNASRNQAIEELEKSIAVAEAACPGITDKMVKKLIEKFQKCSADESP

PRKCZ (human) = PRKCZ (human) (UniProt Q05513); experiment: SelectScreen, TR FRET

With CN(C)S(=O)(=O)Nc1ccc2ccc3ncc(-c4cnn(C)c4)cc3c(=O)c2c1 the residual activity (CDK6 CCND3 (human)) was 108%, the residual activity (FGFR1 (human)) was 5% and the residual activity [1] was 66%. The residual activity (BMX (human)) was 73%, the residual activity (ALK (human)) was 0% and the residual activity (CDK3 CCNE1 (human)) was 100%.

In the case of O=C(CCc1ccc2ccc3ncc(C4CCNCC4)cc3c(=O)c2c1)NCc1ccccn1, the inhibition ([2]; compound 0.1 µM) is reported as 87% and the inhibition ([2]; compound 1.0 µM) is reported as 98.4%.

Cn1cc(-c2cnc3ccc4ccc(CC(=O)NCc5ccccn5)cc4c(=O)c3c2)cn1 was tested, and the inhibition (DAPK1 (human); compound 0.1 µM) was 21.9%, the inhibition (DAPK1 (human); compound 1.0 µM) was 2.1% and the inhibition (DAPK1 (human); compound 10.0 µM) was 14.5%. For the same molecule, the inhibition (PTK6 (human); compound 0.1 µM) was 9.2%, the inhibition (PTK6 (human); compound 1.0 µM) was 12.5% and the inhibition (PTK6 (human); compound 10.0 µM) was 39.1%. The inhibition (CAMK4 (human); compound 0.1 µM) was 13.6%, the inhibition (CAMK4 (human); compound 1.0 µM) was 10.4% and the inhibition (CAMK4 (human); compound 10.0 µM) was 0.8%. It also gave an inhibition (CHEK2 (human); compound 0.1 µM) of 11.8%, an inhibition (CHEK2 (human); compound 1.0 µM) of 17.1% and an inhibition (CHEK2 (human); compound 10.0 µM) of 43.6%. For the same molecule, the inhibition (PIM1 (human); compound 0.1 µM) was 6%, the inhibition (PIM1 (human); compound 1.0 µM) was 5.4% and the inhibition (PIM1 (human); compound 10.0 µM) was 23.6%. For the same molecule, the inhibition (ZAP70 (human); compound 0.1 µM) was 18.4%, the inhibition (ZAP70 (human); compound 1.0 µM) was 17.4% and the inhibition (ZAP70 (human); compound 10.0 µM) was 15.2%. For the same molecule, the inhibition (RPS6KA3 KD1 KD2 (human); compound 0.1 µM) was 6.4%, the inhibition (RPS6KA3 KD1 KD2 (human); compound 1.0 µM) was 7.8% and the inhibition (RPS6KA3 KD1 KD2 (human); compound 10.0 µM) was 18.9%. The inhibition (MAP2K6 (human); compound 0.1 µM) was 9.7%, the inhibition (MAP2K6 (human); compound 1.0 µM) was 9.1% and the inhibition (MAP2K6 (human); compound 10.0 µM) was 7.4%. The inhibition (TEK (human); compound 0.1 µM) was -0.9%, the inhibition (TEK (human); compound 1.0 µM) was 4.6% and the inhibition (TEK (human); compound 10.0 µM) was 45.3%. For the same molecule, the inhibition (EPHB2 (human); compound 0.1 µM) was 8.6%, the inhibition (EPHB2 (human); compound 1.0 µM) was 8% and the inhibition (EPHB2 (human); compound 10.0 µM) was 3.5%. The inhibition (CDK2 CCNA2 (human); compound 0.1 µM) was 17%, the inhibition (CDK2 CCNA2 (human); compound 1.0 µM) was 18.6% and the inhibition (CDK2 CCNA2 (human); compound 10.0 µM) was 18.3%. For the same molecule, the inhibition (CSNK2A1 (human); compound 0.1 µM) was 8.2%, the inhibition (CSNK2A1 (human); compound 1.0 µM) was 9.2% and the inhibition (CSNK2A1 (human); compound 10.0 µM) was 10.2%. It also gave an inhibition (MAPKAPK5 (human); compound 0.1 µM) of 5.2%, an inhibition (MAPKAPK5 (human); compound 1.0 µM) of 6.7% and an inhibition (MAPKAPK5 (human); compound 10.0 µM) of 7.9%. For the same molecule, the inhibition (PAK1 (human); compound 0.1 µM) was 19.6%, the inhibition (PAK1 (human); compound 1.0 µM) was 18.5% and the inhibition (PAK1 (human); compound 10.0 µM) was -12.1%. The inhibition (AKT3 (human); compound 0.1 µM) was 11.3%, the inhibition (AKT3 (human); compound 1.0 µM) was 10.6% and the inhibition (AKT3 (human); compound 10.0 µM) was 14.6%. It also gave an inhibition (AURKB (human); compound 0.1 µM) of 19.7%, an inhibition (AURKB (human); compound 1.0 µM) of 51.8% and an inhibition (AURKB (human); compound 10.0 µM) of 96.4%. The inhibition (IRAK1 (human); compound 0.1 µM) was 7.1%, the inhibition (IRAK1 (human); compound 1.0 µM) was 27.1% and the inhibition (IRAK1 (human); compound 10.0 µM) was 66.3%. For the same molecule, the inhibition (PKN1 (human); compound 0.1 µM) was 12.2%, the inhibition (PKN1 (human); compound 1.0 µM) was 13.6% and the inhibition (PKN1 (human); compound 10.0 µM) was -14.2%. For the same molecule, the inhibition (GRK6 (human); compound 0.1 µM) was 5.6%, the inhibition (GRK6 (human); compound 1.0 µM) was 7% and the inhibition (GRK6 (human); compound 10.0 µM) was 13.4%. The inhibition (JAK2 JH1 JH2 (human); compound 0.1 µM) was 4.4%, the inhibition (JAK2 JH1 JH2 (human); compound 1.0 µM) was 12.5% and the inhibition (JAK2 JH1 JH2 (human); compound 10.0 µM) was 41%. For the same molecule, the inhibition (AKT2 (human); compound 0.1 µM) was 9.8%, the inhibition (AKT2 (human); compound 1.0 µM) was 11.3% and the inhibition (AKT2 (human); compound 10.0 µM) was 15.6%. It also gave an inhibition (MST4 (human); compound 0.1 µM) of 6.9%, an inhibition (MST4 (human); compound 1.0 µM) of 2.2% and an inhibition (MST4 (human); compound 10.0 µM) of -39.8%. For the same molecule, the inhibition (PRKCZ (human); compound 0.1 µM) was 9.2%, the inhibition (PRKCZ (human); compound 1.0 µM) was 9.9% and the inhibition (PRKCZ (human); compound 10.0 µM) was 6.9%.
